In brackets after ≈: the same amount, converted by molar mass. Where a name gives a salt, the structure may show the parent alone. Read-outs that look alike come from different tables or passages of the source.
Tests used:
[1] = tested on: E. faecalis clinical isolates (n = 12) vanA (6)/vanB (6); test: MIC, multidrug-resistant clinical isolates; format: cell-based; conditions: for MIC: read-out: MIC range
Protocol: (§1) The bacterial reference strains used in this study were purchased from ATCC (American Type Culture Collection) via LGC Standards (Middlesex, UK). […] Clinical MDR isolates were provided by Aptuit, the IHMA Europa Sàrl repository (Epalinges, Switzerland) and the Statens Serum Institute (Copenhagen, Denmark).
(§2) MICs were determined by the broth microdilution method (the agar dilution method was used only for N. gonorrhoeae) according to CLSI guidelines.
(§3) The results obtained using clinical isolates are reported as MIC50 and MIC90 values.

[2] = tested on: E. faecium clinical isolates (n = 12) vanA (6)/vanB (6); test: MIC, multidrug-resistant clinical isolates; format: cell-based; conditions: for MIC: read-out: MIC range
Protocol: as §1, §2, §3

[3] = tested on: E. coli clinical isolates (n = 36); test: MIC, multidrug-resistant clinical isolates; format: cell-based, Escherichia coli; conditions: E. coli MDR clinical isolates (n = 36)
Protocol: as §1, §2, §3

[4] = tested on: N. gonorrhoeae clinical isolates (n = 38); test: microbe, parasite or virus in culture; format: cell-based, Neisseria gonorrhoeae
Protocol: as §1, §2, §3

S. aureus ATCC BAA-1720 = test: Time-kill assay; format: cell-based, Staphylococcus aureus; conditions: 1× to 4× MIC, over 24 hours
Protocol: Time-kill experiments were performed according to the procedure reported by Knapp. […] A drug-free control was included in each experiment. The bacterial cultures were standardized to obtain an initial inoculum that ranged from 5×10^5 to 5×10^6 CFU/ml. The cultures were incubated at 37°C in a shaking bath. At 0, 2, 4, 8 and 24-hour intervals, viable counts were performed by spotting (in triplicate) 10 μl aliquots of suitable dilutions of the cultures onto Mueller-Hinton agar (MHA, Oxoid, Basingstoke, UK) plates. After incubation at 37°C for 24 hours, the bactericidal activity, namely, the ability to reduce the initial inoculum by 3 log10 CFU/ml, was assessed for each tested concentration over time.

S. aureus BAA-1720 = test: Minimal bactericidal concentration; format: cell-based, Staphylococcus aureus; conditions: Staphylococcus aureus, BAA1720, ≥99.9% reduction of inoculum
Protocol: (§4) Minimal bactericidal concentrations (MBCs) were determined according to the procedure described by Knapp. Viable counts were performed after plates were incubated at 37°C for 24 hours. The MBC was defined as the lowest concentration that reduced the viability of the initial bacterial inoculum by ≥99.9%.

S. aureus ATCC 29213 [5] = test: Minimal bactericidal concentration; format: cell-based, Staphylococcus aureus; conditions: Staphylococcus aureus, ATCC29213, ≥99.9% reduction of inoculum
Protocol: as §4

E. coli ATCC 25922 = test: Minimal bactericidal concentration; format: cell-based, Escherichia coli; conditions: Escherichia coli, ATCC25922, ≥99.9% reduction of inoculum
Protocol: as §4

S. aureus ATCC 29213 [6] = test: Post-antibiotic effect (PAE); format: cell-based, Staphylococcus aureus
Protocol: A drug-free control was included in each experiment. After being exposed to the drug for 1 hour, viable counts were conducted in triplicate by spotting aliquots (10 μl) of suitable dilutions onto MHA plates. The drugs were removed by diluting the bacterial cultures (1:1000) in Cation-Adjusted Mueller-Hinton Broth (CAMHB; Sigma-Aldrich). The diluted cultures were incubated in a shaking bath at 37°C. To monitor the ongoing suppression of bacterial growth over time (5 hours), aliquots from each broth culture were periodically collected, diluted and plated to perform subsequent viable counts (in triplicate).

[7] = tested on: C. difficile clinical isolates (n = 21); test: MIC, multidrug-resistant clinical isolates; format: cell-based, Clostridium difficile; conditions: Clostridioides difficile; for MIC: read-out: MIC range
Protocol: as §1, §2, §3

[8] = tested on: A. baumannii clinical isolates (n = 10); test: microbe, parasite or virus in culture; format: cell-based, Acinetobacter baumannii; conditions: Acinetobacter baumannii
Protocol: as §1, §2, §3

C. difficile ATCC 700057 = test: MIC, broth microdilution; format: cell-based, Clostridium difficile; conditions: Clostridioides difficile, ATCC700057
Protocol: MICs were determined by the broth microdilution method (the agar dilution method was used only for N. gonorrhoeae) according to CLSI guidelines. […] The MIC values of antibiotics used in clinical practice were interpreted according to the susceptibility interpretive criteria reported in the appropriate CLSI Tables (M100-S25, CLSI, 2015).

[9] = tested on: S. aureus clinical isolates (n = 10); test: microbe, parasite or virus in culture; format: cell-based, Staphylococcus aureus
Protocol: as §1, §2, §3

[10] = Escherichia coli, read-out: MIC50
[11] = Escherichia coli, read-out: MIC90
[12] = C. difficile clinical isolates (n = 21), read-out: MIC50
[13] = C. difficile clinical isolates (n = 21), read-out: MIC90
[14] = C. difficile clinical isolates (n = 21)
[15] = E. faecalis clinical isolates (n = 12), vanA (6)/vanB (6)
[16] = E. faecium clinical isolates (n = 12), vanA (6)/vanB (6)

CC1(C)S[C@@H]2[C@H](NC(=O)[C@H](N)c3ccccc3)C(=O)N2[C@H]1C(=O)O [ampicillin, reference compound]
MIC50 ([1]; Enterococcus faecalis): 2 µg/mL (≈ 5.72 µM)
MIC90 ([1]; Enterococcus faecalis): 2 µg/mL (≈ 5.72 µM)
MIC ([1]; Enterococcus faecalis): 1 to 4 µg/mL (≈ 2.86 to 11.4 µM)
MIC50 ([2]; Enterococcus faecium): > 64 µg/mL
MIC90 ([2]; Enterococcus faecium): > 64 µg/mL
MIC ([2]; Enterococcus faecium): > 64 µg/mL
MIC50 [3, 10]: > 64 µg/mL
MIC90 [3, 11]: > 64 µg/mL

CO/N=C(\C(=O)N[C@@H]1C(=O)N2C(C(=O)O)=C(CSc3nc(=O)c(=O)[nH]n3C)CS[C@H]12)c1csc(N)n1 [ceftriaxone, ceftriaxone sodium, reference compound]
MIC range [4]: ≤0.002 to 0.12 µg/mL
MIC50 ([4]; Neisseria gonorrhoeae): 0.012 µg/mL
MIC90 ([4]; Neisseria gonorrhoeae): 0.094 µg/mL
MIC range [3]: 0.03 to 32 µg/mL
MIC50 [3, 10]: 1 µg/mL
MIC90 [3, 11]: 32 µg/mL

O=C(O)c1cn(C2CC2)c2cc(N3CCNCC3)c(F)cc2c1=O [ciprofloxacin, Ciprofloxacin hydrochloride, reference compound]
Bactericidal activity in time-kill (reduction of 3 log10 CFU/ml) (S. aureus ATCC BAA-1720): no bactericidal effect
MBC (S. aureus BAA-1720): 256 µg/mL
MBC (S. aureus ATCC 29213 [5]): 1 µg/mL
MBC (E. coli ATCC 25922): 0.016 µg/mL
PAE (S. aureus ATCC 29213 [6]; 1-hour exposure at 1× and 4× MIC): 25 min
PAE (S. aureus ATCC 29213 [6]; 1-hour exposure at 16× MIC): 35 min

CCC[C@@H]1C[C@@H](C(=O)N[C@@H]([C@H]2O[C@H](SC)[C@H](O)[C@@H](O)[C@H]2O)[C@H](C)Cl)N(C)C1 [clindamycin, clindamycin hydrochloride, reference compound]
MIC50 [7, 12]: 8 µg/mL
MIC90 [7, 13]: 32 µg/mL
MIC [7, 14]: 4 to 32 µg/mL

CCCCCCCCCC(=O)N[C@@H](Cc1c[nH]c2ccccc12)C(=O)N[C@H](CC(N)=O)C(=O)N[C@@H](CC(=O)O)C(=O)N[C@@H]1C(=O)NCC(=O)N[C@@H](CCCN)C(=O)N[C@@H](CC(=O)O)C(=O)N[C@H](C)C(=O)N[C@@H](CC(=O)O)C(=O)NCC(=O)N[C@H](CO)C(=O)N[C@@H]([C@H](C)CC(=O)O)C(=O)N[C@@H](CC(=O)c2ccccc2N)C(=O)O[C@@H]1C [daptomycin, reference compound]
MIC50 ([1]; Enterococcus faecalis): 1 µg/mL (≈ 0.617 µM)
MIC90 ([1]; Enterococcus faecalis): 1 µg/mL (≈ 0.617 µM)
MIC ([1]; Enterococcus faecalis): 0.5 to 2 µg/mL (≈ 0.309 to 1.23 µM)
MIC50 ([2]; Enterococcus faecium): 4 µg/mL (≈ 2.47 µM)
MIC90 ([2]; Enterococcus faecium): 4 µg/mL (≈ 2.47 µM)
MIC ([2]; Enterococcus faecium): 2 to 4 µg/mL (≈ 1.23 to 2.47 µM)

CCc1c(Cl)c(O)c(Cl)c(O)c1C(=O)O[C@H]1[C@H](O)[C@H](OC)[C@H](OC/C2=C\C=C\C[C@H](O)/C(C)=C/[C@H](CC)[C@@H](O[C@@H]3OC(C)(C)[C@@H](OC(=O)C(C)C)[C@H](O)[C@@H]3O)/C(C)=C/C(C)=C/C[C@@H]([C@@H](C)O)OC2=O)O[C@@H]1C [fidaxomicin, reference compound]
MIC [7, 14]: 0.03 to 1 µg/mL (≈ 0.0284 to 0.945 µM)

CNC(C)C1CCC(N)C(OC2C(N)CC(N)C(OC3OCC(C)(O)C(NC)C3O)C2O)O1 (stereo not drawn) [gentamicin, gentamicin sulfate]
MIC50 [3, 10]: 2 µg/mL
MIC90 [3, 11]: 32 µg/mL

C[C@@H](O)[C@H]1C(=O)N2C(C(=O)O)=C(SCCN=CN)C[C@H]12 [imipenem, imipenem monohydrate, reference compound]
MIC50 [7, 12]: 8 µg/mL
MIC90 [7, 13]: 16 µg/mL
MIC [7, 14]: 2 to 16 µg/mL
MIC ([3]; Escherichia coli): 0.06 to 16 µg/mL
MIC50 [3, 10]: 0.12 µg/mL
MIC90 [3, 11]: 4 µg/mL

C[C@H]1COc2c(N3CCN(C)CC3)c(F)cc3c(=O)c(C(=O)O)cn1c23 [levofloxacin]
MIC range [3]: 0.03 to 32 µg/mL
MIC50 [3, 10]: 4 µg/mL (≈ 11.1 µM)
MIC90 [3, 11]: 16 µg/mL (≈ 44.3 µM)

CC(=O)NC[C@H]1CN(c2ccc(N3CCOCC3)c(F)c2)C(=O)O1 [linezolid, reference compound]
MIC50 ([1]; Enterococcus faecalis): 2 µg/mL (≈ 5.93 µM)
MIC90 ([1]; Enterococcus faecalis): 2 µg/mL (≈ 5.93 µM)
MIC ([1]; Enterococcus faecalis): 1 to 2 µg/mL (≈ 2.96 to 5.93 µM)
MIC50 ([2]; Enterococcus faecium): 2 µg/mL (≈ 5.93 µM)
MIC90 ([2]; Enterococcus faecium): 2 µg/mL (≈ 5.93 µM)
MIC ([2]; Enterococcus faecium): 2 µg/mL (≈ 5.93 µM)

C[C@@H](O)[C@H]1C(=O)N2C(C(=O)O)=C(S[C@@H]3CN[C@H](C(=O)N(C)C)C3)[C@H](C)[C@H]12 [meropenem, reference compound]
MIC50 [8]: 8 µg/mL (≈ 20.9 µM)
MIC90 [8]: ≥ 8 µg/mL

Cc1ncc([N+](=O)[O-])n1CCO [metronidazole, reference compound]
MIC (C. difficile ATCC 700057): 0.25 µg/mL (≈ 1.46 µM)
MIC50 [7, 12]: 0.5 µg/mL (≈ 2.92 µM)
MIC90 [7, 13]: 1 µg/mL (≈ 5.84 µM)
MIC [7, 14]: 0.25 to 2 µg/mL (≈ 1.46 to 11.7 µM)

CC1(C)S[C@@H]2[C@H](NC(=O)Cc3ccccc3)C(=O)N2[C@H]1C(=O)O [penicillin, penicillin G potassium, reference compound]
MIC50 ([1]; Enterococcus faecalis): 4 µg/mL
MIC90 ([1]; Enterococcus faecalis): 8 µg/mL
MIC ([1]; Enterococcus faecalis): 2 to 16 µg/mL
MIC50 ([2]; Enterococcus faecium): > 64 µg/mL
MIC90 ([2]; Enterococcus faecium): > 64 µg/mL
MIC ([2]; Enterococcus faecium): > 64 µg/mL

CN(C)[C@@H]1C(O)=C(C(N)=O)C(=O)[C@@]2(O)C(O)=C3C(=O)c4c(O)cccc4[C@@](C)(O)[C@H]3C[C@@H]12 [tetracycline, tetracycline hydrochloride]
MIC50 [3, 10]: 16 µg/mL
MIC90 [3, 11]: > 64 µg/mL

CN[C@H](CC(C)C)C(=O)N[C@H]1C(=O)N[C@@H](CC(N)=O)C(=O)N[C@H]2C(=O)N[C@H]3C(=O)N[C@H](C(=O)N[C@H](C(=O)O)c4cc(O)cc(O)c4-c4cc3ccc4O)[C@H](O)c3ccc(c(Cl)c3)Oc3cc2cc(c3O[C@@H]2O[C@H](CO)[C@@H](O)[C@H](O)[C@H]2O[C@H]2C[C@](C)(N)[C@H](O)[C@H](C)O2)Oc2ccc(cc2Cl)[C@H]1O [vancomycin, vancomycin hydrochloride, reference compound]
MIC50 ([1]; Enterococcus faecalis): > 64 µg/mL
MIC90 ([1]; Enterococcus faecalis): > 64 µg/mL
MIC50 ([2]; Enterococcus faecium): > 64 µg/mL
MIC90 ([2]; Enterococcus faecium): > 64 µg/mL
MIC ([2]; Enterococcus faecium): > 64 µg/mL
MIC range ([9]; S. aureus MDR clinical isolates (n = 10)): 1 to 4 µg/mL
MIC50 ([9]; Staphylococcus aureus): 1 µg/mL
MIC90 ([9]; Staphylococcus aureus): 2 µg/mL
MIC50 [7]: 2 µg/mL
MIC90 [7]: 2 µg/mL
MIC [7]: 1 to 2 µg/mL

colistin sulfate
MIC50 [3]: 0.5 µg/mL
MIC90 [3]: 0.5 µg/mL

teicoplanin [reference compound]
MIC50 [1, 15]: >64 µg/mL
MIC90 [1, 15]: >64 µg/mL
MIC50 [2, 16]: 1 µg/mL
MIC90 [2, 16]: 64 µg/mL
